In patent publication US5795756A, “Method and compounds for the inhibition of adenylyl cyclase” (priority 1996, dated 1998):
Read-outs that look alike come from different tables or passages of the source. Values belong to the molecule of their own block, whether it stands above or below them.

Tests used:
[1] = molecular target: rat brain adenylyl cyclase; assay: Inhibition of detergent-dispersed rat brain adenylyl cyclase (Table I); type: biochemical; details: for inhibition of adenylyl cyclase activity compared with adenosine: in words, relative to adenosine
Description: Detergent-dispersed adenylyl cyclase from rat brain was prepared as previously described^58. Activities were determined in a reaction mixture containing 50 mM N-[2-hydroxyethyl]-piperazine-N'-[2-ethanesulfonic acid] (HEPES) or 50 mM triethanolamine.cndot.HCl, pH 7.5, 5 mM MnCl2, 100 μM 5'ATP, [α-^32 p]5'ATP (ca. 2 to 5×10^5 dpm), 0.1% (w/v) Lubrol-PX, 1 mM 3-isobutyl-1-methyl-xanthine, 1 mM dithiothreitol, 1 mg bovine serum albumin per ml, 2 mM creatine phosphate, 100 μg creatine kinase per ml, and 100 μM forskolin, in a reaction volume of 100 μl. Reactions were for 15 min at 30° C. and were terminated by the addition of 0.6 ml 120 mM zinc acetate containing 0.5 mM cAMP and 0.5 ml 144 mM sodium carbonate as described by Jakobs et al.^59.
The resulting ZnCO3 precipitate was sedimented by centrifugation in a desktop microfuge. The [^32 P] cAMP in the supernatant fraction was then purified free of residual substrate and other contaminants by sequential chromatography on Dowex-50 and Al2 O3, as described by Salomon et al.^60. [^32 P]cAMP was quantified by Cherenkov radiation in a liquid scintillation spectrometer.
The synthesized adenine derivatives, 1-5, 8, 11-13, 16, 19-21, 34 and 35 were each tested separately in vitro for their ability to inhibit adenylyl cyclase activity by administration of each compound to the above-describedadenylyl cyclase assay.

[2] = molecular target: rat brain adenylyl cyclase; details: Table I, footnote a: values from Johnson et al. 1989; read-out: IC50 for inhibition of rat brain adenylyl cyclase; cited from earlier work
adenylyl cyclases = details: related art, cited from earlier work; for inhibition of adenylyl cyclases via P-site: in words; for IC50: read-out: IC50 for inhibition of adenylyl cyclases
adenylyl cyclase = assay: Inhibition of adenylyl cyclase in intact cells and tissues; type: cell-based; details: cell permeable variants
[3] = molecular target: adenylyl cyclase, Type I, purified recombinant (Bos taurus, UniProt P19754); assay: Inhibition of purified recombinant Type I adenylyl cyclase (Table II); type: biochemical; details: forskolin eluate
[4] = molecular target: adenylyl cyclase, bovine brain, purified; assay: Inhibition of purified bovine brain adenylyl cyclase (Table II); type: biochemical; details: forskolin eluates from forskolin affinity column
intestinal epithelium = details: cited from earlier work
[5] = Table I, 5 mM MnCl2, 100 μM 5'ATP, 100 μM forskolin, pH 7.5, 15 min at 30° C., read-out: IC50 for inhibition of rat brain adenylyl cyclase
[6] = modified or replaced ribosyl moiety
[7] = Table II, rat brain, detergent extract, values from Table I, read-out: IC50, rat brain detergent extract

adenylyl cyclase, Type I, purified recombinant, sequence (P19754 whole entry): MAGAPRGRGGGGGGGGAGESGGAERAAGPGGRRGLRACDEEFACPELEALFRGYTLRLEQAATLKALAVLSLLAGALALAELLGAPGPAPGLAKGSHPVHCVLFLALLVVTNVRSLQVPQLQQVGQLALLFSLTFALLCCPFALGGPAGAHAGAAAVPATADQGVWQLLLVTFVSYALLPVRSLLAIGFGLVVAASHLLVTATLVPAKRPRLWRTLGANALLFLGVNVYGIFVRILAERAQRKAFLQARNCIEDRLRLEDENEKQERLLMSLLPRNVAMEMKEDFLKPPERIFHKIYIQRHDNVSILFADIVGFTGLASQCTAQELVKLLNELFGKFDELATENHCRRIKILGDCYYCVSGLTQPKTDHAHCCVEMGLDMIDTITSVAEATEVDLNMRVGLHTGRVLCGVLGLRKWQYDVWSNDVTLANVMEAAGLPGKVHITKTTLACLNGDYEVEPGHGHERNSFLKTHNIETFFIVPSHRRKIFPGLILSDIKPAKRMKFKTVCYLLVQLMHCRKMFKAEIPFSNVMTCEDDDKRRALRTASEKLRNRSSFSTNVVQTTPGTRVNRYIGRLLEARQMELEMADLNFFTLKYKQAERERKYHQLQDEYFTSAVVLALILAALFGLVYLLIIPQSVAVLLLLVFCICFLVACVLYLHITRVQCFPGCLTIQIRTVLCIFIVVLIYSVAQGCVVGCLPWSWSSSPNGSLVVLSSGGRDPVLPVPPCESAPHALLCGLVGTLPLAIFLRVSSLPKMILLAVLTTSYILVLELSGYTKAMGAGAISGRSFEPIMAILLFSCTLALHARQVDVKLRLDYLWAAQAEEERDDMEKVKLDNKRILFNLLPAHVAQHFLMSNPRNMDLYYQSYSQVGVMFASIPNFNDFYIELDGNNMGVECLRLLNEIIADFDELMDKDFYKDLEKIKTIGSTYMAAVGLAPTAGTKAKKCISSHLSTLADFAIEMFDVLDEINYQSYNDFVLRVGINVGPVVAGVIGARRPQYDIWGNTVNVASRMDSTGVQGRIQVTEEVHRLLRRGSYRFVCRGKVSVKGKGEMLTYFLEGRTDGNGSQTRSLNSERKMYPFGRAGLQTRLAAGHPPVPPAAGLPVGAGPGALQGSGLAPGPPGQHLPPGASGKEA

IC50 [1, 5]: 0.01 µM
Compound: C[C@H]1O[C@@H](n2cnc3c(N)ncnc32)C[C@@H]1OP(=O)(O)OP(=O)(O)OP(=O)(O)OP(=O)(O)O [Compound 5, 2', 5'-dideoxyadenosine-3'-tetraphosphate]

Compound: Nc1ncnc2c1ncn2[C@H]1C[C@H](O)[C@@H](CO)O1 [2'-deoxyadenosine]
IC50 [2]: 15 µM

IC50 [1, 5]: 3 µM
Compound: C[C@H]1O[C@@H](n2cnc3c(N)ncnc32)C[C@@H]1OP(=O)(O)OCCN(C)S(=O)(=O)c1cccc2c(N(C)C)cccc12 [Compound 1, 2', 5'-dideoxyadenosine-3'-[2-([(5-dimethylamino-1-naphthalenesulfonamido) -(N-methyl)]-aminoethyl)-phosphate]]
inhibition of adenylyl cyclase activity compared with adenosine [1]: inhibited adenylyl cyclase activity at concentrations considerably lower than that for adenosine

Compound: Nc1cc[nH]c(=O)n1 [cytosine]
inhibition of adenylyl cyclases via P-site (adenylyl cyclases): inactive

Compound: Nc1nc(F)nc2c1ncn2C1CCCC1 [Compound 19, 9-cyclopentyl-2-fluoro-9H-adenine]
inhibition of the enzyme in intact cells and tissues (adenylyl cyclase): inhibit the enzyme in intact cells and tissues
inhibition of adenylyl cyclase activity compared with adenosine [1]: inhibited adenylyl cyclase activity at concentrations considerably lower than that for adenosine

Compound: Nc1ncnc2c1ncn2[C@@H]1O[C@H](CO)[C@H](O)[C@H]1O [9-β-D-xylofuranosyl-adenine]
IC50 (adenylyl cyclases; [6]): ~25 µM

IC50 [1, 5]: 0.013 µM
Compound: Nc1ncnc2c1ncn2[C@H]1C[C@H](OP(=O)(O)OP(=O)(O)OP(=O)(O)OP(=O)(O)O)[C@@H](CO)O1 [Compound 13, 2'-deoxyadenosine-3'-tetraphosphate]

Compound: Cc1cn([C@H]2C[C@H](O)[C@@H](CO)O2)c(=O)[nH]c1=O [thymidine]
inhibition of adenylyl cyclases via P-site (adenylyl cyclases): inactive

Compound: OC[C@H]1O[C@@H](n2cnc3c(O)ncnc32)[C@H](O)[C@@H]1O [inosine]
inhibition of adenylyl cyclases via P-site (adenylyl cyclases): inactive

Compound: CC(C)CCC[C@@H](C)[C@H]1CC[C@H]2[C@@H]3CC=C4C[C@@H](OP(=O)(O)O[C@H]5C[C@H](n6cnc7c(N)ncnc76)O[C@@H]5C)CC[C@]4(C)[C@H]3CC[C@]12C [Compound 2, 2', 5'dideoxyadenosine-3'-[(3-cholesteryl)-phosphate]]
IC50 [1, 5]: > 300 µM
inhibition of adenylyl cyclase activity compared with adenosine [1]: less effective than adenosine in the inhibition of adenylyl cyclase activity

Compound: Nc1ncnc2c1ncn2C1CCCO1 (centres unmarked) [9-(tetrahydro-2-furyl)-adenine]
IC50 (adenylyl cyclases; [6]): ~10 µM

Compound: Nc1ncnc2c1ncn2Cc1ccco1 [9-furfuryl-adenine]
IC50 (adenylyl cyclases; unit printed kM): ~26 µM

IC50 [1, 5]: 0.09 µM
Compound: Nc1ncnc2c1ncn2[C@H]1C[C@H](OP(=O)(O)OP(=O)(O)OP(=O)(O)O)[C@@H](CO)O1 [Compound 12, 2'-deoxyadenosine-3'-triphosphate]

IC50 [3]: 0.25 µM
IC50 [4]: 0.56 µM
IC50 [1, 5]: 0.1 µM
IC50 [1, 7]: 0.1 µM
Compound: C[C@H]1O[C@@H](n2cnc3c(N)ncnc32)C[C@@H]1OP(=O)(O)OP(=O)(O)O [Compound 3, 2', 5'-dideoxyadenosine-3'-diphosphate]

Compound: Nc1ncnc2c1ncn2[C@H]1C[C@H](OP(O)(O)=S)[C@@H](CO)O1 [Compound 16, 2'-deoxyadenosine-3'-O-thiophosphate]
inhibition of adenylyl cyclase activity compared with adenosine [1]: inhibited adenylyl cyclase activity at concentrations considerably lower than that for adenosine

IC50 [1, 5]: 0.14 µM
Compound: Nc1ncnc2c1ncn2[C@H]1C[C@H](OP(=O)(O)OP(=O)(O)O)[C@@H](CO)O1 [Compound 11, 2'-deoxyadenosine-3'-diphosphate]

Compound: C[C@H]1O[C@@H](n2cnc3c(N)ncnc32)C[C@@H]1O [2',5'-dideoxyadenosine]
counteracting effects of cholera intoxication (intestinal epithelium): used to counteract the effects of cholera intoxication in intestinal epithelium
IC50 [2]: 2.7 µM

Compound: Nc1ncnc2c1ncn2[C@@H]1O[C@H](CO)[C@@H](O)[C@H]1O [adenosine]
IC50 [2]: 82 µM

Compound: Nc1ncnc2c1ncn2C[C@@H](O)[C@@H](O)C(=O)O [eritadenine]
IC50 (adenylyl cyclases; [6]): 6 to 12 µM

Compound: Nc1ncnc2c1ncn2C1CCCC1 [9-cyclopentyl-adenine]
IC50 (adenylyl cyclases; [6]): ~20 µM

IC50 [1, 5]: 3.9 µM
Compound: Nc1ncnc2c1ncn2[C@@H]1O[C@H](CO)[C@@H](OP(=O)(O)OP(=O)(O)O)[C@H]1O [Compound 34, adenosine-3'-diphosphate]

IC50 [1, 5]: 2 µM
Compound: Nc1ncnc2c1ncn2[C@@H]1O[C@H](CO)[C@@H](OP(=O)(O)OP(=O)(O)OP(=O)(O)O)[C@H]1O [Compound 35, adenosine-3'-triphosphate]

Compound: Nc1nc(F)nc2c1ncn2[C@H]1C[C@H](O)[C@@H](CO)O1 [2-fluoro-2'-deoxyadenosine]
inhibition of adenylyl cyclases via P-site (adenylyl cyclases): inhibitory

IC50 [3]: 1.99 µM
IC50 [1, 5]: 0.46 µM
IC50 [1, 7]: 0.46 µM
Compound: C[C@H]1O[C@@H](n2cnc3c(N)ncnc32)C[C@@H]1OP(=O)(O)O [2'5'dd3'AMP]

Compound: C[C@H]1O[C@@H](n2cnc3c(N)ncnc32)C[C@@H]1OC(=O)c1ccc(S(=O)(=O)F)cc1 [3'-(4-fluorosulfonylbenzoyl) -2', 5'-dideoxyadenosine]
inhibition of adenylyl cyclases via P-site (adenylyl cyclases): inhibitory effectiveness

Compound: Nc1nc2c(ncn2[C@@H]2O[C@H](CO)[C@@H](O)[C@H]2O)c(=O)[nH]1 [guanosine]
inhibition of adenylyl cyclases via P-site (adenylyl cyclases): inactive

Compound: C[C@H]1O[C@@H](n2cnc3c(N)ncnc32)C[C@@H]1OP(O)(O)=S [Compound 8, 2', 5'-dideoxyadenosine-3'-O-thiophosphate]
inhibition of adenylyl cyclase activity compared with adenosine [1]: inhibited adenylyl cyclase activity at concentrations considerably lower than that for adenosine

Compound: Nc1ncnc2c1ncn2[C@H]1C[C@H](OP(=O)(O)O)[C@@H](CO)O1 [2'd3'AMP]
IC50 [2]: 1.2 µM

IC50 [1, 5]: 8.9 µM
Compound: Nc1ncnc2c1ncn2[C@@H]1O[C@H](CO)[C@@H](OP(=O)(O)O)[C@H]1O [3'AMP]

Compound: Nc1ncnc2c1ncn2[C@@H]1O[C@H](CO)[C@@H](O)[C@@H]1O [9-β-D-arabinofuranosyl-adenine]
IC50 (adenylyl cyclases; [6]): ~100 µM

IC50 [3]: 0.17 µM
IC50 [4]: 0.12 µM
IC50 [1, 5]: 0.04 µM
IC50 [1, 7]: 0.04 µM
Compound: C[C@H]1O[C@@H](n2cnc3c(N)ncnc32)C[C@@H]1OP(=O)(O)OP(=O)(O)OP(=O)(O)O [Compound 4, 2', 5'-dideoxyadenosine-3'-triphosphate]

Compound: CC1CCC(n2cnc3c(N)ncnc32)O1 (centres unmarked) [9-(tetrahydro-5-methyl-2-furyl)-adenine]
IC50 (adenylyl cyclases; [6]): ~8 µM

Compound: C[C@H]1O[C@@H](n2cnc3c(N)ncnc32)C[C@@H]1OC(=O)CCC(=O)O [3'-succinyl-2', 5'-dideoxyadenosine]
inhibition of adenylyl cyclases via P-site (adenylyl cyclases): inhibitory effectiveness

Compound: O=c1ccn([C@@H]2O[C@H](CO)[C@@H](O)[C@H]2O)c(=O)[nH]1 [uridine]
inhibition of adenylyl cyclases via P-site (adenylyl cyclases): inactive

Compound: Nc1nc(F)nc2c1ncn2[C@@H]1O[C@H](CO)[C@@H](O)[C@H]1O [2-fluoroadenosine]
inhibition of adenylyl cyclases via P-site (adenylyl cyclases): inhibitory
